Results reported in patent US20230331718A1, “COMPOSITIONS FOR MODULATING SPLICING” (Skyhawk Therapeutics, Inc., priority 2020, published 2023).

Tests used:
[1] = system: SMN2 Splicing D7 (SMN Δ7 transcript); test: SMN Quantitative Splicing Assay (qPCR); type: cell-based, human; details: 24 h, SMA patient fibroblasts (GM03813), 2.5 µM to 0.6 nM
Experimental: Spinal muscular atrophy (SMA) patient fibroblasts (GM03813, Coriell) were plated in 96-well plates at 50,000 cells/well. […] Treated cells were lysed and cDNA synthesized using the Fast Advanced Cells-to-Ct kit (Thermofisher A35378) according to the manufacturer’s instructions. 2 µL of each cDNA were used in qPCR reactions. […] Reactions were run in a Quant Studio 6 qPCR instrument with default settings.

SMN2 Protein = test: SMN Protein Assay (MSD); type: cell-based, human; details: SMA patient fibroblasts, 48 hours, 0.6 nM to 2.5 µM
Experimental: Spinal muscular atrophy (SMA) patient fibroblasts were plated in 96-well plates at 7,000 cells/well. Compounds were added in concentrations ranging from 0.6 nM to 2.5 µM, incubated for 48 hours and the cells were lysed with 100 µL of lysis buffer. 20 µL of lysate was used for SMN protein measurement by Mesoscale Discovery (MSD) assay developed by PharmOptima (Michigan). A standard curve prepared with SMN protein ranging from 1 µg/ml to 19.5pg/ml was used in each MSD plate to calculate the absolute SMN protein amount in each sample.

| SMILES | IC50 ([1]; Homo sapiens, Fibroblast) [nM] | EC50 (SMN2 Protein) [nM] | IC50 [1] [nM] |
| --- | --- | --- | --- |
| [2H]C([2H])([2H])n1cc(F)c2cc(-c3ncc(N(C)[C@@H]4CC5CC[C@H](N5)[C@@H]4F)nn3)c(O)cc2c1=O [Compound 192] | 0.01 to 15 | 0.01 to 15 |  |
| CCc1cc(=O)c2cc(-c3ncc(N(C)[C@H]4C[C@@H]5CCC(N5)[C@H]4F)nn3)c(O)cc2o1 [Compound 118] | 0.01 to 15 | 0.01 to 15 |  |
| CN(c1cnc(-c2cc3c(F)cn(C)c(=O)c3cc2O)nn1)[C@H]1C[C@]2(C)CCC(N2)[C@H]1F [Compound 38] | 0.01 to 15 | 0.01 to 15 |  |
| CN(c1cnc(-c2cc3occc(=O)c3cc2O)nn1)[C@@H]1C[C@@]2(C)CCC[C@](C)(N2)[C@@H]1F [Compound 61] | 51 to 100 | 0.01 to 15 |  |
| [2H]C([2H])([2H])N(c1cnc(-c2cc3ccn(C([2H])([2H])[2H])c(=O)c3cc2O)nn1)[C@@H]1CC2CC[C@H](N2)[C@@H]1F [Compound 168] | 51 to 100 | 0.01 to 15 |  |
| CN(c1cnc(-c2cc3occc(=O)c3cc2O)nn1)[C@@H]1CC2COC[C@H](N2)[C@@H]1F [Compound 67] | 101 to 500 | 51 to 100 |  |
| CCn1ncc2cc(-c3ncc(N(C)[C@H]4C[C@@H]5CCC(N5)[C@H]4F)nn3)c(O)cc2c1=O [Compound 165] | 0.01 to 15 | 0.01 to 15 |  |
| CN(c1cnc(-c2cc3c(F)cn(C)c(=O)c3cc2O)nn1)[C@H]1C[C@@H]2CCC(N2)[C@H]1F [Compound 66, 4-Fluoro-6-(6-{[(2R,3S,5S)-2-fluoro-8-azabicyclo[3.2.1]octan-3-yl](methyl)amino}-1,2,4-triazin-3-yl)-7-hydroxy-2-methylisoquinolin-1-one] | 0.01 to 15 | 0.01 to 15 |  |
| CCn1cnc2cc(-c3ncc(N(C)C4CC5CCC(N5)[C@H]4F)nn3)c(O)cc2c1=O (some centres unmarked) [Compound 32] | 0.01 to 15 | 0.01 to 15 |  |
| [2H]C([2H])([2H])N(c1cnc(-c2cc3c(F)cn(C([2H])([2H])[2H])c(=O)c3cc2O)nn1)[C@@H]1C[C@H]2CC[C@H](N2)[C@@H]1F [Compound 194] | 0.01 to 15 | 0.01 to 15 |  |
| [2H]C([2H])([2H])C([2H])([2H])n1cc(F)c2cc(-c3ncc(N(C)[C@H]4CC5CCC(N5)[C@H]4F)nn3)c(O)cc2c1=O (some centres unmarked) [Compound 208] | 0.01 to 15 | 0.01 to 15 |  |
| Cc1c(F)c2cc(-c3ncc(N(C)[C@H]4C[C@@H]5CC[C@@H](N5)[C@H]4F)nn3)c(O)cc2c(=O)n1C [Compound 204] | 0.01 to 15 | 0.01 to 15 |  |
| Cc1cc(=O)c2cc(O)c(-c3ncc(N(C)[C@H]4CC5CCC[C@@H](N5)[C@H]4F)nn3)cc2o1 [Compound 127] | 0.01 to 15 | 0.01 to 15 |  |
| [2H]C([2H])([2H])N(c1cnc(-c2cc3c(F)cn(CC)c(=O)c3cc2O)nn1)[C@H]1C[C@@H]2CC[C@@H](N2)[C@H]1F [Compound 201] | 0.01 to 15 | 0.01 to 15 |  |
| Cc1cc2cc(-c3ncc(N(C)[C@H]4CC5CC[C@@H](N5)[C@H]4F)nn3)c(O)cc2c(=O)n1C [Compound 206] | 0.01 to 15 | 0.01 to 15 |  |
| CCc1cc(=O)c2cc(-c3ncc(N(C)[C@@H]4C[C@H]5CCC(N5)[C@@H]4F)nn3)c(O)cc2o1 [Compound 117] | 51 to 100 | 16 to 50 |  |
| CCn1ccc2cc(-c3ncc(N(C)[C@H]4C[C@@H]5CCCC(N5)[C@H]4F)nn3)c(O)cc2c1=O [Compound 121] | 0.01 to 15 | 0.01 to 15 |  |
| CN(c1cnc(-c2cc3c(F)cn(C)c(=O)c3cc2O)nn1)C1CC2CCCC(N2)[C@@H]1F (some centres unmarked) [Compound 138] | 16 to 50 | 0.01 to 15 |  |
| Cc1coc2cc(-c3ncc(N(C)C4CC5CCC(N5)[C@H]4F)nn3)c(O)cc2c1=O (some centres unmarked) [Compound 28] | 0.01 to 15 | 0.01 to 15 |  |
| CN(c1cnc(-c2cc3occ(C(F)(F)F)c(=O)c3cc2O)nn1)[C@H]1C[C@@H]2CC[C@@H](N2)[C@H]1F [Compound 90] | 16 to 50 | 16 to 50 |  |

| SMILES | IC50 ([1]; Homo sapiens, Fibroblast) [nM] | EC50 (SMN2 Protein) [nM] | IC50 [1] [nM] |
| --- | --- | --- | --- |
| [2H]C([2H])([2H])N(c1cnc(-c2cc3ncn(C([2H])([2H])[2H])c(=O)c3cc2O)nn1)[C@@H]1CC2CC[C@H](N2)[C@@H]1F [Compound 176] | 16 to 50 | 0.01 to 15 |  |
| CN(c1cnc(-c2cc3nccnc3cc2O)nn1)C1CC2CCC(N2)C1F (centres unmarked) [Compound 20] | 16 to 50 | 16 to 50 |  |
| CN(c1cnc(-c2cc3ncn(C)c(=O)c3cc2O)nn1)[C@@H]1C[C@H]2CCCC(N2)[C@@H]1F [Compound 124] | 16 to 50 | 16 to 50 |  |
| CN(c1cnc(-c2cc3nccnc3cc2O)nn1)[C@@H]1CC2CC[C@H](N2)[C@@H]1F [Compound 19] | 101 to 500 | 101 to 500 |  |
| CN(c1cnc(-c2cc3ncn(C)c(=O)c3cc2O)nn1)C1CC2CC[C@@](C)(N2)[C@H]1F (some centres unmarked) [Compound 136] | 0.01 to 15 | 0.01 to 15 |  |
| CN(c1cnc(-c2cc3cc[nH]c(=O)c3cc2O)nn1)[C@@H]1CC2CC[C@H](N2)[C@@H]1F [Compound 170] | 51 to 100 | 16 to 50 |  |
| CN(c1cnc(-c2cc3ccn(C(F)F)c(=O)c3cc2O)nn1)[C@@H]1CC2CCC(N2)[C@@H]1F (some centres unmarked) [Compound 156] | 16 to 50 | 0.01 to 15 |  |
| CN(c1cnc(-c2cc3ccn(C)c(=O)c3cc2O)nn1)[C@@H]1C[C@@]2(C)CC[C@H](N2)[C@@H]1F [Compound 174] | 0.01 to 15 | 0.01 to 15 |  |
| Cc1nc2cc(-c3ncc(N(C)[C@H]4CC5CC[C@@H](N5)[C@H]4F)nn3)c(O)cc2c(=O)n1C [Compound 205] | 0.01 to 15 | 0.01 to 15 |  |
| Cc1coc2cc(-c3ncc(N(C)[C@@H]4CC5CCCC(N5)[C@@H]4F)nn3)c(O)cc2c1=O (some centres unmarked) [Compound 101] | 0.01 to 15 | 0.01 to 15 |  |
| CN(c1cnc(-c2cc3ccn(C)c(=O)c3cc2O)nn1)C1CC2COCC(C1)N2 (centres unmarked) [Compound 147] | 0.01 to 15 | 0.01 to 15 |  |
| CCn1cnc2cc(-c3ncc(N(C)C4CC5CCC(N5)[C@@H]4F)nn3)c(O)cc2c1=O (some centres unmarked) [Compound 31] | 51 to 100 | 51 to 100 |  |
| CN(c1cnc(-c2cc3occc(=O)c3cc2O)nn1)[C@H]1C[C@]2(C)CCC[C@@](C)(N2)[C@H]1F [Compound 64] | 0.01 to 15 | 0.01 to 15 |  |
| CN(c1cnc(-c2cc3occc(=O)c3cc2O)nn1)[C@H]1C[C@@H]2CCCC(N2)[C@H]1F [Compound 63] | 16 to 50 | 0.01 to 15 |  |
| [2H]C([2H])([2H])n1ncc2cc(-c3ncc(N(C)[C@H]4C[C@@H]5CCC(N5)[C@H]4F)nn3)c(O)cc2c1=O [Compound 181] | 0.01 to 15 | 0.01 to 15 |  |
| CN(c1cnc(-c2cc3cnn(C)c(=O)c3cc2O)nn1)C1CC2CCCC(N2)C1F (centres unmarked) [Compound 132] |  | 51 to 100 | 16 to 50 |
| Cc1cnc2cc(O)c(-c3ncc(N(C)[C@H]4C[C@@H]5CCC(N5)[C@H]4F)nn3)cc2n1 [Compound 52] | 16 to 50 | 0.01 to 15 |  |
| CN(c1cnc(-c2cc3ccncc3cc2O)nn1)C1CC2CCC(N2)C1F (centres unmarked) [Compound 21] | 101 to 500 | 16 to 50 |  |
| CN(c1cnc(-c2cc3ncn(C(F)F)c(=O)c3cc2O)nn1)[C@H]1CC2CC[C@@H](N2)[C@H]1F [Compound 195] | 0.01 to 15 | 0.01 to 15 |  |
| Cc1ncc2cc(O)c(-c3ncc(N(C)[C@@H]4CC5CCC(N5)[C@@H]4F)nn3)cc2n1 (single isomer, unassigned) [Compound 39] | 101 to 500 | 51 to 100 |  |
